Data published in ChEMBL document CHEMBL1697731, “Cheminformatics analysis of assertions mined from literature that describe drug-induced liver injury in different species” (Chem Res Toxicol, 2010).

Key:
[1] = tested on: Hepatotoxicity; experiment: Literature-mined compound from Fourches et al multi-species drug-induced liver injury (DILI) dataset, effect in non-rodents
[2] = tested on: Hepatotoxicity; experiment: Literature-mined compound from Fourches et al multi-species drug-induced liver injury (DILI) dataset, effect in rodents; details: rodentia
[3] = tested on: Hepatotoxicity; experiment: Literature-mined compound from Fourches et al multi-species drug-induced liver injury (DILI) dataset, effect in humans; details: human

Row | SMILES | Hepatotoxicity [1] | Hepatotoxicity [2] | Hepatotoxicity [3] | Hepatotoxicity ([1]; Liver) | Hepatotoxicity ([2]; Liver) | Hepatotoxicity ([3]; Liver)
1 | CCC1(CC)C(=O)NC(=O)NC1=O [BARBITAL] | no drug-induced liver injury reported | drug-induced liver injury reported | no drug-induced liver injury reported |  |  | 
2 | Cn1c(CCCC(=O)O)nc2cc(N(CCCl)CCCl)ccc21 [BENDAMUSTINE] | no drug-induced liver injury reported | no drug-induced liver injury reported | drug-induced liver injury reported |  |  | 
3 | O=C(O)COc1nn(Cc2ccccc2)c2ccccc12 [BENDAZAC] |  |  |  | no drug-induced liver injury reported | no drug-induced liver injury reported | drug-induced liver injury reported
4 | CC(=O)Nc1ccc(OC(=O)c2ccccc2OC(C)=O)cc1 [BENORILATE] | no drug-induced liver injury reported | drug-induced liver injury reported | no drug-induced liver injury reported |  |  | 
5 | CC(C(=O)O)c1ccc2oc(-c3ccc(Cl)cc3)nc2c1 (stereo unspecified) [BENOXAPROFEN] | no drug-induced liver injury reported | drug-induced liver injury reported | drug-induced liver injury reported |  |  | 
6 | CCc1oc2ccccc2c1C(=O)c1ccc(O)cc1 [BENZARONE] | no drug-induced liver injury reported | drug-induced liver injury reported | drug-induced liver injury reported |  |  | 
7 | CCc1oc2ccccc2c1C(=O)c1cc(Br)c(O)c(Br)c1 [BENZBROMARONE] | no drug-induced liver injury reported | drug-induced liver injury reported | drug-induced liver injury reported |  |  | 
8 | CCc1oc2ccccc2c1C(=O)c1cc(I)c(O)c(I)c1 [BENZIODARONE] | no drug-induced liver injury reported | drug-induced liver injury reported | no drug-induced liver injury reported |  |  | 
9 | O=C(OOC(=O)c1ccccc1)c1ccccc1 [BENZOYL PEROXIDE] | no drug-induced liver injury reported | drug-induced liver injury reported | no drug-induced liver injury reported |  |  | 
10 | CC#CCC(C)[C@H](O)/C=C/[C@@H]1[C@H]2c3cccc(CCCC(=O)O)c3O[C@H]2C[C@H]1O (stereo partly specified) [BERAPROST] | no drug-induced liver injury reported | drug-induced liver injury reported | no drug-induced liver injury reported |  |  | 
11 | CC1=C(/C=C/C(C)=C/C=C/C(C)=C/C=C/C=C(C)/C=C/C=C(C)/C=C/C2=C(C)CCCC2(C)C)C(C)(C)CCC1 [BETA CAROTENE] | drug-induced liver injury reported | drug-induced liver injury reported | drug-induced liver injury reported |  |  | 
12 | CC[C@H](CC[C@@H](C)[C@H]1CC[C@H]2[C@@H]3CC=C4C[C@@H](O)CC[C@]4(C)[C@H]3CC[C@]12C)C(C)C [BETA-SITOSTEROL] | no drug-induced liver injury reported | drug-induced liver injury reported | drug-induced liver injury reported |  |  | 
13 | C[N+](C)(C)CC(=O)O [BETAINE] | no drug-induced liver injury reported | drug-induced liver injury reported | no drug-induced liver injury reported |  |  | 
14 | C[C@H]1C[C@H]2[C@@H]3CCC4=CC(=O)C=C[C@]4(C)[C@@]3(F)[C@@H](O)C[C@]2(C)[C@@]1(O)C(=O)CO [BETAMETHASONE] | no drug-induced liver injury reported | drug-induced liver injury reported | no drug-induced liver injury reported |  |  | 
15 | C=C(C)[C@@H]1CC[C@]2(C(=O)O)CC[C@]3(C)[C@H](CC[C@@H]4[C@@]5(C)CC[C@H](O)C(C)(C)[C@@H]5CC[C@]43C)[C@@H]12 [BETULINIC ACID] | no drug-induced liver injury reported | no drug-induced liver injury reported | drug-induced liver injury reported |  |  | 
16 | CC(C)(Oc1ccc(CCNC(=O)c2ccc(Cl)cc2)cc1)C(=O)O [BEZAFIBRATE] | no drug-induced liver injury reported | drug-induced liver injury reported | drug-induced liver injury reported |  |  | 
17 | CC(O)(CS(=O)(=O)c1ccc(F)cc1)C(=O)Nc1ccc(C#N)c(C(F)(F)F)c1 (stereo unspecified) [BICALUTAMIDE] | no drug-induced liver injury reported | no drug-induced liver injury reported | drug-induced liver injury reported |  |  | 
18 | c1ccc(-c2ccc(C(c3ccccc3)n3ccnc3)cc2)cc1 (stereo unspecified) [BIFONAZOLE] | no drug-induced liver injury reported | drug-induced liver injury reported | no drug-induced liver injury reported |  |  | 
19 | O=C(O)CCCC[C@@H]1SC[C@@H]2NC(=O)N[C@@H]21 [BIOTIN] | no drug-induced liver injury reported | no drug-induced liver injury reported | drug-induced liver injury reported |  |  | 

Row | SMILES | Hepatotoxicity [1] | Hepatotoxicity [2] | Hepatotoxicity [3] | Hepatotoxicity ([1]; Liver) | Hepatotoxicity ([2]; Liver) | Hepatotoxicity ([3]; Liver)
20 | CC(C)NCC(O)COc1ccc(COCCOC(C)C)cc1 (stereo unspecified) [BISOPROLOL] | no drug-induced liver injury reported | no drug-induced liver injury reported | drug-induced liver injury reported |  |  | 
21 | CC(C)C[C@H](NC(=O)[C@H](Cc1ccccc1)NC(=O)c1cnccn1)B(O)O [BORTEZOMIB] |  |  |  | no drug-induced liver injury reported | drug-induced liver injury reported | drug-induced liver injury reported
22 | COc1ccccc1Oc1c(NS(=O)(=O)c2ccc(C(C)(C)C)cc2)nc(-c2ncccn2)nc1OCCO [BOSENTAN] | drug-induced liver injury reported | drug-induced liver injury reported | drug-induced liver injury reported |  |  | 
23 | Nc1c(CC(=O)O)cccc1C(=O)c1ccc(Br)cc1 [BROMFENAC] | no drug-induced liver injury reported | no drug-induced liver injury reported | drug-induced liver injury reported |  |  | 
24 | CC(C)C(Br)C(=O)NC(N)=O (stereo unspecified) [BROMISOVALUM] | no drug-induced liver injury reported | drug-induced liver injury reported | drug-induced liver injury reported |  |  | 
25 | CC(C)C[C@H]1C(=O)N2CCC[C@H]2[C@]2(O)O[C@](NC(=O)[C@@H]3C=C4c5cccc6[nH]c(Br)c(c56)C[C@H]4N(C)C3)(C(C)C)C(=O)N12 [BROMOCRIPTINE] | no drug-induced liver injury reported | drug-induced liver injury reported | no drug-induced liver injury reported |  |  | 
26 | Cc1nnc2n1-c1sc(Br)cc1C(c1ccccc1Cl)=NC2 [BROTIZOLAM] | no drug-induced liver injury reported | drug-induced liver injury reported | no drug-induced liver injury reported |  |  | 
27 | CCCC(=O)Nc1ncnc2c1ncn2[C@@H]1O[C@@H]2COP(=O)(O)O[C@H]2[C@H]1OC(=O)CCC [BUCLADESINE] | drug-induced liver injury reported | drug-induced liver injury reported | drug-induced liver injury reported |  |  | 
28 | CCCC1O[C@@H]2C[C@H]3[C@@H]4CCC5=CC(=O)C=C[C@]5(C)[C@H]4[C@@H](O)C[C@]3(C)[C@]2(C(=O)CO)O1 (stereo partly specified) [BUDESONIDE] | no drug-induced liver injury reported | drug-induced liver injury reported | drug-induced liver injury reported |  |  | 
29 | CCCCNc1cc(C(=O)O)cc(S(N)(=O)=O)c1Oc1ccccc1 [BUMETANIDE] | drug-induced liver injury reported | no drug-induced liver injury reported | no drug-induced liver injury reported |  |  | 
30 | CCCCN1CCCCC1C(=O)Nc1c(C)cccc1C (stereo unspecified) [BUPIVACAINE] | no drug-induced liver injury reported | drug-induced liver injury reported | no drug-induced liver injury reported |  |  | 
31 | CO[C@]12CC[C@@]3(C[C@@H]1[C@](C)(O)C(C)(C)C)[C@H]1Cc4ccc(O)c5c4[C@@]3(CCN1CC1CC1)[C@H]2O5 [BUPRENORPHINE] | no drug-induced liver injury reported | drug-induced liver injury reported | drug-induced liver injury reported |  |  | 
32 | CC(NC(C)(C)C)C(=O)c1cccc(Cl)c1 (stereo unspecified) [BUPROPION] | no drug-induced liver injury reported | no drug-induced liver injury reported | drug-induced liver injury reported |  |  | 
33 | O=C1CC2(CCCC2)CC(=O)N1CCCCN1CCN(c2ncccn2)CC1 [BUSPIRONE] | no drug-induced liver injury reported | no drug-induced liver injury reported | drug-induced liver injury reported |  |  | 
34 | CS(=O)(=O)OCCCCOS(C)(=O)=O [BUSULFAN] | no drug-induced liver injury reported | drug-induced liver injury reported | drug-induced liver injury reported |  |  | 
35 | CCCCOCN(C(=O)CCl)c1c(CC)cccc1CC [BUTACHLOR] | no drug-induced liver injury reported | drug-induced liver injury reported | no drug-induced liver injury reported |  |  | 
36 | C=CCC1(CC(C)C)C(=O)NC(=O)NC1=O [BUTALBITAL] | no drug-induced liver injury reported | no drug-induced liver injury reported | drug-induced liver injury reported |  |  | 
37 | CCCCC1(CC)C(=O)NC(=O)NC1=O [BUTETHAL] | no drug-induced liver injury reported | drug-induced liver injury reported | no drug-induced liver injury reported |  |  | 
